Article PMC7265341, “Quantifying CDK inhibitor selectivity in live cells” (Nature Communications, 2020)
Where two headings read alike, the source gives them in different places.

Key:
CDK1/Cyclin E1 = CDK1/Cyclin E1 (Homo sapiens, UniProt P06493); test: NanoBRET live-cell target engagement, CDK1-NanoLuc/Cyclin E1 in HEK-293; type: binding; conditions: CDK1/E1, 10µM
CDK2/Cyclin E1 = CDK2/Cyclin E1 (Homo sapiens, UniProt P24941); test: NanoBRET live-cell target engagement, CDK2-NanoLuc/Cyclin E1 in HEK-293; type: binding; conditions: CDK2/E1, 10µM
CDK3/Cyclin E1 = CDK3/Cyclin E1 (Homo sapiens, UniProt Q00526); test: NanoBRET live-cell target engagement, CDK3-NanoLuc/Cyclin E1 in HEK-293; type: binding; conditions: CDK3/E1, 10µM
CDK3/Cyclin E1, sequence (Q00526 whole entry): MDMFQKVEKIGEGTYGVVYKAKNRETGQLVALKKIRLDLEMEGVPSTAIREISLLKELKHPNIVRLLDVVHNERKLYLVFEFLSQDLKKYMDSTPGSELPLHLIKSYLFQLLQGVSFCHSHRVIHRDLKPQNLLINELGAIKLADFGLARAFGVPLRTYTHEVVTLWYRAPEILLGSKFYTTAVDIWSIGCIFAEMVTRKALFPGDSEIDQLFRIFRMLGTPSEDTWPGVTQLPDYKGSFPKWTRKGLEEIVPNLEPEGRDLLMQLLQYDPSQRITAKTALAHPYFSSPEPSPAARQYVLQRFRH
CDK3/Cyclin E1, sequence (P24864 whole entry partner): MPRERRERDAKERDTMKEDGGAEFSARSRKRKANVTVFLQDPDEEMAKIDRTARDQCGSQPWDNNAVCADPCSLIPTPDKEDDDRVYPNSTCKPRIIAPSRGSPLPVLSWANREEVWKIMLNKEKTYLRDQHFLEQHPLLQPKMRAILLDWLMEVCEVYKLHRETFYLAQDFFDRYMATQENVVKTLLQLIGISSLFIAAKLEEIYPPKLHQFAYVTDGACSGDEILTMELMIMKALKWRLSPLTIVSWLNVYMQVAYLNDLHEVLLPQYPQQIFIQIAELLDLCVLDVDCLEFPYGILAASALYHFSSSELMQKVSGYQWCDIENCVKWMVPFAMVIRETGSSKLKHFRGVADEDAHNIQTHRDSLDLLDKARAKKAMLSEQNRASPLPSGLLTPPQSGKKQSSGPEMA

CDK4/Cyclin D1 = CDK4/Cyclin D1 (Homo sapiens, UniProt P11802); test: NanoBRET live-cell target engagement, NanoLuc-CDK4/Cyclin D1 in HEK-293; type: binding; conditions: CDK4/D1, 10µM
CDK5/CDK5R1 = CDK5/CDK5R1 (Homo sapiens, UniProt Q00535); test: NanoBRET live-cell target engagement, CDK5-NanoLuc/CDK5R1 in HEK-293; type: binding; conditions: CDK5/CDK5R1, 10µM
CDK5/CDK5R1, sequence (Q00535 whole entry): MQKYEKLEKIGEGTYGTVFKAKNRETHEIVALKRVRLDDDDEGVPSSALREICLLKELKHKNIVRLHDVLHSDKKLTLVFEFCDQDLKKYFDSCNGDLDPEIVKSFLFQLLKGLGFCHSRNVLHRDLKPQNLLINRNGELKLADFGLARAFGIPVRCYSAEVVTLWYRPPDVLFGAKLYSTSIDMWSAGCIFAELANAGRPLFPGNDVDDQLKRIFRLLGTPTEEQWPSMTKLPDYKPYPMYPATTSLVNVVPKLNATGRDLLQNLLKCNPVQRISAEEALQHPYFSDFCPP
CDK5/CDK5R1, sequence (Q15078 whole entry partner): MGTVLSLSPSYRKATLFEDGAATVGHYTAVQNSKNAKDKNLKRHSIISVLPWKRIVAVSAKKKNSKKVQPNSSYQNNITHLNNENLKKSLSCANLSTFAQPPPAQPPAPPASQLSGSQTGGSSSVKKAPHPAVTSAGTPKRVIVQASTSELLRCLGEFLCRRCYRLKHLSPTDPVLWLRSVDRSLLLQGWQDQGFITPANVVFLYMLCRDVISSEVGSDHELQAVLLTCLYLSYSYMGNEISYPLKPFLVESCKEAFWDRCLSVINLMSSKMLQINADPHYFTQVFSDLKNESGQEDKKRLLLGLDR

CDK6/Cyclin D1 = CDK6/Cyclin D1 (Homo sapiens, UniProt Q00534); test: NanoBRET live-cell target engagement, NanoLuc-CDK6/Cyclin D1 in HEK-293; type: binding; conditions: CDK6/D1, 10µM
CDK7 = CDK7 (Homo sapiens, UniProt P50613); test: NanoBRET live-cell target engagement, NanoLuc-CDK7 in HEK-293; type: binding; conditions: CDK7, 10µM
CDK7, sequence (P50613 whole entry): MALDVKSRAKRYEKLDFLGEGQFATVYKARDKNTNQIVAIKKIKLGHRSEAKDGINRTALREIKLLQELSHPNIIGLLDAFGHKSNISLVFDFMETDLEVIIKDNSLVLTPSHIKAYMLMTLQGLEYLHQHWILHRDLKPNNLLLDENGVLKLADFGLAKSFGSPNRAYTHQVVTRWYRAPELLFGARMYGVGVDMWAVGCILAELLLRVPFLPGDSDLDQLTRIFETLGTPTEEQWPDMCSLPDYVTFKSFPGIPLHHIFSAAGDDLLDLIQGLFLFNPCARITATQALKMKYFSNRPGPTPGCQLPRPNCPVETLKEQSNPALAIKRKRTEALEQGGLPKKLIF

CDK8/Cyclin C = CDK8/Cyclin C (Homo sapiens, UniProt P49336); test: NanoBRET live-cell target engagement, NanoLuc-CDK8/Cyclin C in HEK-293; type: binding; conditions: CDK8/C, 10µM
CDK9/Cyclin K = CDK9/Cyclin K (Homo sapiens, UniProt P50750); test: NanoBRET live-cell target engagement, NanoLuc-CDK9/Cyclin K in HEK-293; type: binding; conditions: for inhibition at 10 µM: CDK9/K
CDK9/Cyclin K, sequence (P50750 whole entry): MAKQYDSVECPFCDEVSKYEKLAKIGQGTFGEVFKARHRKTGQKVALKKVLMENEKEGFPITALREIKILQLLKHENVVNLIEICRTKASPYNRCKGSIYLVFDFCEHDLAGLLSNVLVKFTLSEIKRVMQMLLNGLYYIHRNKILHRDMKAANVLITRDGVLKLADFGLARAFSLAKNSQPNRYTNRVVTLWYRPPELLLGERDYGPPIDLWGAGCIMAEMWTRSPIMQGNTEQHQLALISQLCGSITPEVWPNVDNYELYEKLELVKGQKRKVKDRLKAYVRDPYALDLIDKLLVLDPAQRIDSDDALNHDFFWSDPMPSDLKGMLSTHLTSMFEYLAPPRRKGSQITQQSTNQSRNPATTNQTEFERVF
CDK9/Cyclin K, sequence (O75909 whole entry partner): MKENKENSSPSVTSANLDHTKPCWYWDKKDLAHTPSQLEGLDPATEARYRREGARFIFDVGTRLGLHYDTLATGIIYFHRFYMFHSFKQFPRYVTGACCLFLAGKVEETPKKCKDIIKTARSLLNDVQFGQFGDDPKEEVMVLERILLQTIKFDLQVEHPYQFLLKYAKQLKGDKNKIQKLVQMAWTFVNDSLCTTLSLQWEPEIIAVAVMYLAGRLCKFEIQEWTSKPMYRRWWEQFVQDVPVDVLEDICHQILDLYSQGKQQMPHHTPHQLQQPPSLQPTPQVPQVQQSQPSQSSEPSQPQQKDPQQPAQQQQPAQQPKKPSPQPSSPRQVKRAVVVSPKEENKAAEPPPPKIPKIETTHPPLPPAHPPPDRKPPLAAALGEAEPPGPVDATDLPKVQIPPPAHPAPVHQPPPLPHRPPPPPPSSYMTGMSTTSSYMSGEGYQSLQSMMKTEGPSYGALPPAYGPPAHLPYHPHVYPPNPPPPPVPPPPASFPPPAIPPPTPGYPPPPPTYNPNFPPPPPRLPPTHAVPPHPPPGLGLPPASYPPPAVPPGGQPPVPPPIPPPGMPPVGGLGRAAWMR

CDK11B/Cyclin L2 = CDK11B/Cyclin L2 (Homo sapiens, UniProt P21127); test: NanoBRET live-cell target engagement, CDK11B-NanoLuc/Cyclin L2 in HEK-293; type: binding; conditions: CDK11b/L2, 10µM
CDK12/Cyclin K = CDK12/Cyclin K (Homo sapiens, UniProt Q9NYV4); test: NanoBRET live-cell target engagement, CDK12-NanoLuc/Cyclin K in HEK-293; type: binding; conditions: CDK12/K, 10µM
CDK13/Cyclin K = CDK13/Cyclin K (Homo sapiens, UniProt Q14004); test: NanoBRET live-cell target engagement, CDK13-NanoLuc/Cyclin K in HEK-293; type: binding; conditions: CDK13/K, 10µM
CDK14/Cyclin Y = CDK14/Cyclin Y (Homo sapiens, UniProt O94921); test: NanoBRET live-cell target engagement, CDK14-NanoLuc/Cyclin Y in HEK-293; type: binding; conditions: CDK14/Y, 10µM
CDK15/Cyclin Y = CDK15/Cyclin Y (Homo sapiens, UniProt Q96Q40); test: NanoBRET live-cell target engagement, NanoLuc-CDK15/Cyclin Y in HEK-293; type: binding; conditions: CDK15/Y, 10µM
CDK15/Cyclin Y, sequence (Q96Q40 whole entry): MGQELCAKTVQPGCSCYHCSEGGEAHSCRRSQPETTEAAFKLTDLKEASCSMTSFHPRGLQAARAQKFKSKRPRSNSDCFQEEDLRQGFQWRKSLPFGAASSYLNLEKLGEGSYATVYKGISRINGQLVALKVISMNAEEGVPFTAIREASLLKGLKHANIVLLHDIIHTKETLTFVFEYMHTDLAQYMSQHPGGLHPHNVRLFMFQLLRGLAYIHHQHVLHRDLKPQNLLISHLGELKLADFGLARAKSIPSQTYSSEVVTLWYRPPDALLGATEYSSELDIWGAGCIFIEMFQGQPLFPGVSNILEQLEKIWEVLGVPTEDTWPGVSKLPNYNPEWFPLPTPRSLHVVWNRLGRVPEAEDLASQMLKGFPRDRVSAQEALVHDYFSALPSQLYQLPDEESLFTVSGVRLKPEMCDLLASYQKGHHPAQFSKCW
CDK15/Cyclin Y, sequence (Q8ND76 whole entry partner): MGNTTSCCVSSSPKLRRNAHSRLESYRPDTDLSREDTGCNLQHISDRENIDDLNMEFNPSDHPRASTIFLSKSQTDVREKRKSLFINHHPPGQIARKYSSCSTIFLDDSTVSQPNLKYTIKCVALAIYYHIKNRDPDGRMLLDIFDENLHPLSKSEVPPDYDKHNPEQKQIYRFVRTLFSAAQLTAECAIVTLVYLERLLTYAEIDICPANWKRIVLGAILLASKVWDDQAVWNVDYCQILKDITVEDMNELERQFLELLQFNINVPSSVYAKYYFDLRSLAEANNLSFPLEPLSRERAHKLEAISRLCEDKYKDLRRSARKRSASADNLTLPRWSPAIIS

CDK16/Cyclin Y = CDK16/Cyclin Y (Homo sapiens, UniProt Q00536); test: NanoBRET live-cell target engagement, CDK16-NanoLuc/Cyclin Y in HEK-293; type: binding; conditions: CDK16/Y, 10µM
CDK17/Cyclin Y = CDK17/Cyclin Y (Homo sapiens, UniProt Q00537); test: NanoBRET live-cell target engagement, CDK17-NanoLuc/Cyclin Y in HEK-293; type: binding; conditions: CDK17/Y, 10µM
CDK18/Cyclin Y = CDK18/Cyclin Y (Homo sapiens, UniProt Q07002); test: NanoBRET live-cell target engagement, CDK18-NanoLuc/Cyclin Y in HEK-293; type: binding; conditions: CDK18/Y, 10µM
CDK18/Cyclin Y, sequence (Q07002 whole entry): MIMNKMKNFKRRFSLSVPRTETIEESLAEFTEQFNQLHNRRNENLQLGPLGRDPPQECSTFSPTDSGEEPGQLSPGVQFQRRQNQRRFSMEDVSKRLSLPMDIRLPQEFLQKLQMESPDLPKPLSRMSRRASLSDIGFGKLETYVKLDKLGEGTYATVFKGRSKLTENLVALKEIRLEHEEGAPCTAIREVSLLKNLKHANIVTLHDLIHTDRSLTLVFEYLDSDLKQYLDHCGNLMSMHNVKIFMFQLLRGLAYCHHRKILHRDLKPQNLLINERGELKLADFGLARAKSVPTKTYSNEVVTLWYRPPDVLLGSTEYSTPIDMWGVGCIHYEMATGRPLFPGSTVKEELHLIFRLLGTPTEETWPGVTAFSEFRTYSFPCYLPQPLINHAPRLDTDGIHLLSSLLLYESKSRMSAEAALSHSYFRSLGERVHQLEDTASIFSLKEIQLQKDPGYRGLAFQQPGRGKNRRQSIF
CDK18/Cyclin Y, sequence (Q8ND76 whole entry partner): as the sequence (Q8ND76 whole entry partner) above

CDK20/Cyclin H = CDK20/Cyclin H (Homo sapiens, UniProt Q8IZL9); test: NanoBRET live-cell target engagement, NanoLuc-CDK20/Cyclin H in HEK-293; type: binding; conditions: CDK20/H, 10µM
CDK19/Cyclin C = CDK19/Cyclin C (Homo sapiens, UniProt Q9BWU1); test: NanoBRET live-cell target engagement, NanoLuc-CDK19/Cyclin C in HEK-293; conditions: 10µM
CDK19/Cyclin C, sequence (Q9BWU1 whole entry): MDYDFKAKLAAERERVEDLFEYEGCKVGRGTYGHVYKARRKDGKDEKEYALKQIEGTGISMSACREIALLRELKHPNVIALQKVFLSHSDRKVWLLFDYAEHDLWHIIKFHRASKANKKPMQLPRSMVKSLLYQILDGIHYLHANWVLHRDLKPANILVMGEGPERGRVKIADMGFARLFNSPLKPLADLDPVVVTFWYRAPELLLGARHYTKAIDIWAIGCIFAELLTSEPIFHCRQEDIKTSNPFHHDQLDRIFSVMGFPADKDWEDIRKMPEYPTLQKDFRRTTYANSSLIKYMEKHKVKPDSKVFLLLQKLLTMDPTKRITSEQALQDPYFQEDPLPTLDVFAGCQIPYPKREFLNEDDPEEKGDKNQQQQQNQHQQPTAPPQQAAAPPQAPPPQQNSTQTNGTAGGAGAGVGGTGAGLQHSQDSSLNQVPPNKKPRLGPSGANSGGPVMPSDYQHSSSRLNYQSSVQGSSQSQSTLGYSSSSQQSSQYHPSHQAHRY
CDK19/Cyclin C, sequence (P24863 whole entry partner): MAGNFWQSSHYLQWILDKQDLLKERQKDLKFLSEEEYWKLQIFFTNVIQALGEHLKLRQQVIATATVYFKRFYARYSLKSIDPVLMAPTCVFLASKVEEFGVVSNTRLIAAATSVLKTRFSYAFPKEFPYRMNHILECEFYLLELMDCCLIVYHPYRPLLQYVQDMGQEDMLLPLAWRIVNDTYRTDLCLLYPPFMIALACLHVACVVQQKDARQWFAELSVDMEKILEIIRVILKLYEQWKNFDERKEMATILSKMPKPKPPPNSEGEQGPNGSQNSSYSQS

CDK10/Cyclin L2 = CDK10/Cyclin L2 (Homo sapiens, UniProt Q15131); test: NanoBRET live-cell target engagement, CDK10-NanoLuc/Cyclin L2 in HEK-293; conditions: 10µM
[1] = average of replicates, read-out: Inhibition at 10µM (%) Average
[2] = read-out: Inhibition at 10µM (%) Replicate 1
[3] = read-out: Inhibition at 10µM (%) Replicate 2

SMILES: COc1cc(F)ccc1-c1cc(Nc2cc(CS(C)(=N)=O)ccn2)ncc1F (stereo not drawn) [BAY-1251152]
- inhibition at 10 µM (CDK1/Cyclin E1; [1]): 56%
- inhibition at 10 µM (CDK1/Cyclin E1; [2]): 55.2%
- inhibition at 10 µM (CDK1/Cyclin E1; [3]): 56.8%
- inhibition at 10 µM (CDK2/Cyclin E1; [1]): 72.3%
- inhibition at 10 µM (CDK2/Cyclin E1; [2]): 71%
- inhibition at 10 µM (CDK2/Cyclin E1; [3]): 73.6%
- inhibition at 10 µM (CDK3/Cyclin E1; [1]): 77.9%
- inhibition at 10 µM (CDK3/Cyclin E1; [2]): 75.8%
- inhibition at 10 µM (CDK3/Cyclin E1; [3]): 80%
- inhibition at 10 µM (CDK4/Cyclin D1; [1]): 79.7%
- inhibition at 10 µM (CDK4/Cyclin D1; [2]): 75.9%
- inhibition at 10 µM (CDK4/Cyclin D1; [3]): 83.4%
- inhibition at 10 µM (CDK5/CDK5R1; [1]): 56.6%
- inhibition at 10 µM (CDK5/CDK5R1; [2]): 44.9%
- inhibition at 10 µM (CDK5/CDK5R1; [3]): 68.3%
- inhibition at 10 µM (CDK6/Cyclin D1; [1]): 86.3%
- inhibition at 10 µM (CDK6/Cyclin D1; [2]): 83.5%
- inhibition at 10 µM (CDK6/Cyclin D1; [3]): 89.1%
- inhibition at 10 µM (CDK7; [1]): 58.7%
- inhibition at 10 µM (CDK7; [2]): 59.8%
- inhibition at 10 µM (CDK7; [3]): 57.6%
- inhibition at 10 µM (CDK8/Cyclin C; [1]): 9.9%
- inhibition at 10 µM (CDK8/Cyclin C; [2]): 13.9%
- inhibition at 10 µM (CDK8/Cyclin C; [3]): 5.9%
- inhibition at 10 µM (CDK9/Cyclin K; [1]): 99.8%
- inhibition at 10 µM (CDK9/Cyclin K; [2]): 99.5%
- inhibition at 10 µM (CDK9/Cyclin K; [3]): 100%
- CDK9 Occupancy Data, Plasmid (CDK9/Cyclin K; LOG10([BAY-1251152]) (LOG10(µM)) 0.045757): 99.1453
- CDK9 Occupancy Data, Plasmid (CDK9/Cyclin K; LOG10([BAY-1251152]) (LOG10(µM)) 0.522879): 96.1111
- CDK9 Occupancy Data, Plasmid (CDK9/Cyclin K; LOG10([BAY-1251152]) (LOG10(µM)) 1): 96.4103
- CDK9 Occupancy Data, Plasmid (CDK9/Cyclin K; LOG10([BAY-1251152]) (LOG10(µM)) -0.43136): 97.094
- CDK9 Occupancy Data, Plasmid (CDK9/Cyclin K; LOG10([BAY-1251152]) (LOG10(µM)) -0.90849): 95.641
- CDK9 Occupancy Data, Plasmid (CDK9/Cyclin K; LOG10([BAY-1251152]) (LOG10(µM)) -1.38561): 91.9658
- CDK9 Occupancy Data, Plasmid (CDK9/Cyclin K; LOG10([BAY-1251152]) (LOG10(µM)) -1.86273): 87.906
- CDK9 Occupancy Data, Plasmid (CDK9/Cyclin K; LOG10([BAY-1251152]) (LOG10(µM)) -2.33985): 67.9487
- CDK9 Occupancy Data, Plasmid (CDK9/Cyclin K; LOG10([BAY-1251152]) (LOG10(µM)) -2.81697): 29.4872
- CDK9 Occupancy Data, Plasmid (CDK9/Cyclin K; LOG10([BAY-1251152]) (LOG10(µM)) -3.29409): 6.838
- CDK9 Occupancy Data, Plasmid (CDK9/Cyclin K; LOG10([BAY-1251152]) (LOG10(µM)) -3.77121): 1.421e-14
- inhibition at 10 µM (CDK11B/Cyclin L2; [1]): 33.9%
- inhibition at 10 µM (CDK11B/Cyclin L2; [2]): 35.6%
- inhibition at 10 µM (CDK11B/Cyclin L2; [3]): 32.1%
- inhibition at 10 µM (CDK12/Cyclin K; [1]): 25.3%
- inhibition at 10 µM (CDK12/Cyclin K; [2]): 33%
- inhibition at 10 µM (CDK12/Cyclin K; [3]): 17.7%
- inhibition at 10 µM (CDK13/Cyclin K; [1]): 23.2%
- inhibition at 10 µM (CDK13/Cyclin K; [2]): 23.5%
- inhibition at 10 µM (CDK13/Cyclin K; [3]): 22.8%
- inhibition at 10 µM (CDK14/Cyclin Y; [1]): 19.5%
- inhibition at 10 µM (CDK14/Cyclin Y; [2]): 16.7%
- inhibition at 10 µM (CDK14/Cyclin Y; [3]): 22.4%
- inhibition at 10 µM (CDK15/Cyclin Y; [1]): 40%
- inhibition at 10 µM (CDK15/Cyclin Y; [2]): 31.9%
- inhibition at 10 µM (CDK15/Cyclin Y; [3]): 48.2%
- inhibition at 10 µM (CDK16/Cyclin Y; [2]): 62.8%
- inhibition at 10 µM (CDK16/Cyclin Y; [3]): 66.7%
- inhibition at 10 µM (CDK17/Cyclin Y; [1]): 59.9%
- inhibition at 10 µM (CDK17/Cyclin Y; [2]): 56.6%
- inhibition at 10 µM (CDK17/Cyclin Y; [3]): 63.1%
- inhibition at 10 µM (CDK18/Cyclin Y; [1]): 46.2%
- inhibition at 10 µM (CDK18/Cyclin Y; [2]): 38.7%
- inhibition at 10 µM (CDK18/Cyclin Y; [3]): 53.8%
- inhibition at 10 µM (CDK20/Cyclin H; [2]): 8.6%
- inhibition at 10 µM (CDK20/Cyclin H; [3]): 8.9%
- inhibition at 10 µM (CDK19/Cyclin C; read-out: Inhibition at 10µM (%) Average, CDK19/C, average of replicates): 21.3%
- inhibition at 10 µM (CDK19/Cyclin C; read-out: Inhibition at 10µM (%) Replicate 1, CDK19/C): 28.8%
- inhibition at 10 µM (CDK19/Cyclin C; read-out: Inhibition at 10µM (%) Replicate 2, CDK19/C): 13.7%
- inhibition at 10 µM (CDK10/Cyclin L2; read-out: Inhibition at 10µM (%) Average, CDK10/L2, average of replicates): 45%
- inhibition at 10 µM (CDK10/Cyclin L2; read-out: Inhibition at 10µM (%) Replicate 1, CDK10/L2): 38.6%
- inhibition at 10 µM (CDK10/Cyclin L2; read-out: Inhibition at 10µM (%) Replicate 2, CDK10/L2): 51.4%
